Source: EPA's ToxValDB 9.5 (doi:10.2903/j.efsa.2014.3812)
Converted amounts (≈) assume the structure as drawn.

Assays:
[1] = tested on: Typhlodromus pyri; test: LR50; higher = less toxic; details: not reported; mortality
[2] = tested on: Pimephales promelas
[3] = tested on: Hypoaspis aculeifer; details: chronic/long-term
[4] = tested on: Apis mellifera; details: acute, mortality
[5] = tested on: Daphnia magna; details: chronic/long-term; duration: 21 days; reproduction
[6] = tested on: Colinus virginianus
[7] = tested on: Folsomia candida; details: chronic/long-term
[8] = tested on: Rattus norvegicus
[9] = tested on: Tagia sp.

## O=C(O)COc1ccc(Cl)cc1Cl [2,4-Dichlorophenoxyacetic acid]
[1]
  LR50: > 3000 g/ha
[2]; acute, duration: 96 hours, mortality
  LC50: 100 mg/L (≈ 452 µM)
[2]; chronic/long-term, duration: 32 days, growth
  NOEC: 63.4 mg/L
[3]
  NOEC: 5 mg/kg
[4]; dermal
  LD50: > 100 µg/piece
[4]; oral, unspecified
  LD50: 94 µg/piece
[5]
  NOEC: 38.4 mg/L
[6]; acute, oral
  LD50: 500 mg/kg-day
[6]; reproduction developmental
  NOAEL: 100 mg/kg-day
[7]
  NOEC: 1.25 mg/kg
[8]; acute
  LD50: 486 mg/kg-day
[8]; acute, clinical signs
  NOAEL: 75 mg/kg-day
[8]; chronic
  NOAEL: 20.6 mg/kg-day
[8]; chronic, duration: 2 years, organ weight
  NOAEL: 5 mg/kg-day
[8]; subchronic, duration: 90 days, oral, histopathology: nonneoplastic
  NOAEL: 15 mg/kg-day
[9]; acute, duration: 14 days, mortality
  LC50: 350 mg/kg
[9]; chronic/long-term, duration: 8 weeks
  NOEC: 62.5 mg/kg
